Experimental findings from patent publication US6288051A, “7 α-(5-methylaminopentyl)-estratrienes, process for their production, pharmaceutical preparations that contain these 7 α(5-methylaminopentyl)-estratrienes as well as their use for the production of pharmaceutical agents” (Schering Aktiengesellschaft, priority 1996, dated 2001) are described below.

The test system of one experiment is MXT breast neoplasm. Put plainly: Tumor-inhibiting effect on hormone-dependent MXT(+) breast cancer in mice. The format is in vivo, mouse. Conditions: oral. From the text: 2.1 MXT breast neoplasm in mice 2.1. Tumor-Inhibiting Effect on Hormone-Dependent […] Cancer in Mice Principle of the Method The MXT(+)-breast cancer is an estrogen- and progesterone receptor-positivetumor that was originally produced by induction with urethane and is then transplanted onward in series. Growth can be inhibited by ovariectomy and antiestrogens. This model is therefore very well suited for studying the tumor-inhibiting action of endocrinotherapeutic agents. Execution of the Test Animal Material Adult, female BDFI-mice (7-10 weeks old; weight 18-21 g). Standard care conditions. Formulation and Administration of Test Substances The test substances are dissolved in ethanol+peanut oil (1+9), and the one-time dose is administered at a volume of 0.1 ml s.c. In the case of oral administration, the test substance is dissolved in ethanol+peanut oil (1+9), and the daily dose is administered at a volume of 0.1 ml. The treatment begins either immediately after tumor implantation or 2-3 weeks thereafter (treatment of established tumors). […] Tumor growth is determined by ascertaining the tumor surface area with the aid of a sliding gauge. The tumor surface area is calculated from the product of the longest diameter and the tumor diameter that is perpendicular to said longest diameter. […] Analysis Average values ±SE of tumor surface areas are determined. […]

In the next experiment the target is T1, human estrogen receptor (Homo sapiens, UniProt P03372).
T1 construct: expressed in transfected cells; host or cells: HeLa
T1 sequence (P03372 1-595): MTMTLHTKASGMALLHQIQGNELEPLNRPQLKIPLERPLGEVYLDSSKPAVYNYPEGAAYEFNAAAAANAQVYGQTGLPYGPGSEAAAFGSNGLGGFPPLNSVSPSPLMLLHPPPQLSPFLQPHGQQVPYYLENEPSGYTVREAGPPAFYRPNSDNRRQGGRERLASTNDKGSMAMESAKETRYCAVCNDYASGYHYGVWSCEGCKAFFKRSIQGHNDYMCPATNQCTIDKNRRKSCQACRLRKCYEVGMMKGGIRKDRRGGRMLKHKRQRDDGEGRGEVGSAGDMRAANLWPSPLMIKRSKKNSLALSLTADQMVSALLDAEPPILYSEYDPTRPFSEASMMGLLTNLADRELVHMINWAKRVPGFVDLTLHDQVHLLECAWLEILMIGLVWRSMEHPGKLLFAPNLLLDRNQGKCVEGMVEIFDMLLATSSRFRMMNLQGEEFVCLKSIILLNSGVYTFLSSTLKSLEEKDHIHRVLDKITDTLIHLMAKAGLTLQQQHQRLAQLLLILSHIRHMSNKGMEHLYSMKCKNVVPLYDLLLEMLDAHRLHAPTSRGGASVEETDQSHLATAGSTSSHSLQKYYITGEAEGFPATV
Briefly: Transactivation assay, HeLa cells transfixed with human estrogen receptor-expression vector (HEGO) and Vit-TK-CAT reporter gene. Type of experiment: cell-based. As to the method: The antiestrogenic action of the compounds according to the invention was determined in transactivation assays [Demirpence, E.; Duchesne M.-J.; Badia, E.; Gagne, D. and Pons, M.: MVLN Cells: A Bioluminescent MCF-7-Derived Cell Line to Study the Modulation of Estrogenic Activity; J. Steroid. Molec. Biol. Vol. 46, No. 3, 355-364 (1993) as well as Berry, M.; Metzeger D.; Chambon, P.: Role of the Two Activating Domains of the Estrogen Receptor in the Cell-type and Promoter-context Dependent Agonistic Activity of the Anti-estrogen 4-Hydroxytamoxifen; The EMBO Journal Vol. 9, 2811-2818 (1990)].
The HeLa cells are transfixed with human estrogen receptor-expression vector (HEGO) and Vit-TK-CAT reporter genes, and the MVLN cells are transfixed with reporter gene Vit-TK-LUC: […]

Experiment [1] concerns NMU-induced breast cancer. Briefly: NMU-induced breast cancer in rats. Type of experiment: in vivo, rat. From the text:
2.3 NNMU^+ -induced breast cancer in rats
2.3 Influencing of Tumor Growth in the NMU^+ Model in Rats (MM Tumor Model)
^+ N-Methyl-N-nitrosourea
The growth of the NMU-induced breast neoplasm of rats is largely dependent on estrogens and, in contrast to the DMBA tumor model, less on prolactin. Active antiestrogens, aromatase inhibitors, and antigestagens lead to the inhibition of tumor growth. Substances with antigonadotrophic properties also exert a tumor-inhibiting action.
Female rats (Sprague-Dawley)
NMU=i.v., test substance: s.c./p.o. […]
p.o. = 0.1 or 0.2 ml/100 g/d in ethanol + peanut oil (1 + 9)
s.c. = 0.1 ml/100 g/d in ethanol + peanut oil (1 + 9)
The animals receive 50 mg/kg of NMU i.v. on a one-time basis. Then, the animals are examined once a week by palpation for tumor development. About 6-8 weeks after NMU treatment, one or more tumors develop per animal. At a minimum size of 150 mm^2 /tumor/animal, daily treatment (7× a week) begins with the test substance, and the determination of body weight+tumor size is done (with the aid of a sliding gauge) (1×/week).
The values that are found are tested for significance in the Dunnett Test and are plotted graphically.

`CN(CCCCC[C@@H]1Cc2cc(O)ccc2[C@H]2CC[C@]3(C)[C@@H](O)CC[C@H]3[C@H]12)CCCSCCCC(F)(F)C(F)(F)F` [Example 1, 7α-{5-[N-Methyl-N-3-(4,4,5,5,5-pentafluoropentylthio)-propylamino]-pentyl}-estra-1,3,5(10)-triene-3,17β-diol]: the “inhibition of tumor growth” value in the experiment with MXT breast neoplasm (14 days of treatment, 10 mg/kg/day (FIG. 3)) is “inhibits tumor growth as strongly as an ovariectomy”; in experiment [1] (oral, 10 mg/kg/day) it was “complete inhibition of tumor growth”. In addition, the “activity compared to 7α-[9-(4,4,5,5,5-pentafluoropentanesulfinyl)-nonyl]-estra-1,3,5(10)-triene-3,17β-diol” value with MXT breast neoplasm (MXT, 14 days, 10 mg/kg/day) is given as “more strongly active”; in experiment [1] (NMU, oral), “clearly more strongly active”. It took 0.3 nM to reach half-maximal inhibition on human estrogen receptor (IC50). For the same compound, the “inhibition of tumor growth, dose dependence” value in experiment [1] (orally administered (FIG. 5)) is reported as “inhibits tumor growth in a dose-dependent manner”.
